Reference: US10414811B2, “Protease-resistant lipidated GLP-1 analogs” (MEDIMMUNE LIMITED, priority 2015, dated 2019)
Like-named read-outs stand apart in the source and are kept apart here.

Assays:
Type in all cases: cell-based
[1] = biological target: T1, human glucose-dependent insulinotropic peptide receptor (GIPR) (Homo sapiens, UniProt P48546); experiment: cAMP assay, human GIPR cells; conditions: cAMP assay
T1 construct: expressed in transfected cells
T1 sequence (P48546 22-466): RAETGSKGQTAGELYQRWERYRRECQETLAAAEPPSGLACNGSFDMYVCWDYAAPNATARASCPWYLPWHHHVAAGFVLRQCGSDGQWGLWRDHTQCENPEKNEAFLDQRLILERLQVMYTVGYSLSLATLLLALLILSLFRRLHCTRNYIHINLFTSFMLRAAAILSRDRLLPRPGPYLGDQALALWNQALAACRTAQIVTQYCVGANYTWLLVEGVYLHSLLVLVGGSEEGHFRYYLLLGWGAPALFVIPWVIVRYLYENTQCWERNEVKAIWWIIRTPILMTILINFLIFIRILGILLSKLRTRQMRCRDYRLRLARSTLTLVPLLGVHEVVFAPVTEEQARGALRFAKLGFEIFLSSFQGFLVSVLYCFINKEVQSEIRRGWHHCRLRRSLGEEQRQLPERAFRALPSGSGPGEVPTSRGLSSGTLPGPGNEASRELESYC
How it was run: (§1)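 Peptide-stimulated cAMP measured by two-step HTRF after a 30 min room-temperature incubation with receptor-expressing cells (hGLP-1R, hGIPR at 1×10^5 cells/ml; hGCGR at 2×10^5 cells/ml). Duplicate dilutions; EC50 from 4-parameter logistic fit of % Delta F.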

[2] = biological target: T2, human glucagon receptor (GCGR) (Homo sapiens, UniProt P47871); experiment: cAMP assay, human GCGR cells; conditions: cAMP assay
T2 construct: expressed in transfected cells
How it was run: as §1

[3] = biological target: T3, human GLP-1 receptor (GLP-1R) (Homo sapiens, UniProt P43220); experiment: cAMP assay, human GLP-1R cells
T3 construct: expressed in transfected cells
How it was run: as §1

[4] = first determination (n1), read-out: Primary assay EC50 GIP-R (n1)
[5] = second determination (n2), read-out: Primary assay EC50 GIP-R (n2)
[6] = first determination (n1), read-out: Primary assay EC50 Gluc-R (n1)
[7] = second determination (n2), read-out: Primary assay EC50 Gluc-R (n2)
[8] = cAMP assay, first determination (n1), read-out: Primary assay EC50 GLP-1R n1
[9] = cAMP assay, second determination (n2), read-out: Primary assay EC50 GLP-1R n2
[10] = mean of n1 and n2, read-out: Mean pM GLP-1R
[11] = Primary assay EC50 GIP-R (n1), first determination (n1)
[12] = read-out: Primary assay EC50 GIP-R (n2), second determination (n2)
[13] = Primary assay EC50 Gluc-R (n1), first determination (n1)
[14] = read-out: Primary assay EC50 Gluc-R (n2), second determination (n2)

T2 sequence (P47871 26-477): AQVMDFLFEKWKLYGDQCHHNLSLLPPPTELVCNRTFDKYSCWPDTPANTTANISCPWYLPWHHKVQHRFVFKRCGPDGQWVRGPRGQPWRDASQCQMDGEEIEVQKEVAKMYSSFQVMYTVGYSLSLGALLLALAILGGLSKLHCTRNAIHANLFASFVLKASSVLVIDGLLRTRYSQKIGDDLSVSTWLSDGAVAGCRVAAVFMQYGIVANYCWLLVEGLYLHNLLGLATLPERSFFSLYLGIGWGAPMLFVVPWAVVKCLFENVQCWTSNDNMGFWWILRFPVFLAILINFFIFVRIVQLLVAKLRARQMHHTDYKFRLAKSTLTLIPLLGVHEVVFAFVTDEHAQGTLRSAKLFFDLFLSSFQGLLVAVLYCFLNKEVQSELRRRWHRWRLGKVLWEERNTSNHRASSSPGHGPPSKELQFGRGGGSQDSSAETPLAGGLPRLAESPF
T3 sequence (P43220 24-463): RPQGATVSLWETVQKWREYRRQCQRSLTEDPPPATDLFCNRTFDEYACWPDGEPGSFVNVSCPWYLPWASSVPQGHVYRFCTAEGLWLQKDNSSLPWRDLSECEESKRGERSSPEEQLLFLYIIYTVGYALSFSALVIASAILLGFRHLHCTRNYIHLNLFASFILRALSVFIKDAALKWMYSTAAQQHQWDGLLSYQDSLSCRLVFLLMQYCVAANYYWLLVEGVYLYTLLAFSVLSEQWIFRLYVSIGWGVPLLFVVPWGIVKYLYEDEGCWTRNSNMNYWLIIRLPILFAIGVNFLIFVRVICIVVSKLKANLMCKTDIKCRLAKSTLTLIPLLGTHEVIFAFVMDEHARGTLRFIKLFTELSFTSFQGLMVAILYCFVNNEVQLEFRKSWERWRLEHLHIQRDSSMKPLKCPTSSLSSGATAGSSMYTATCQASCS

SMILES	EC50 [1, 4] [nM]	EC50 [1, 5] [nM]	EC50 [2, 6] [nM]	EC50 [2, 7] [nM]	EC50 [3, 8] [pM]	EC50 [3, 9] [pM]	EC50 [3, 10] [pM]	EC50 [1, 11] [nM]	EC50 [1, 12] [nM]	EC50 [2, 13] [nM]	EC50 [2, 14] [nM]
CCCCCCCCCCCC(=O)NCCCCCC(=O)NCCCC[C@H](NC(=O)[C@H](C)NC(=O)[C@H](C)NC(=O)[C@H](CCC(=O)O)NC(=O)CNC(=O)[C@H](CCC(=O)O)NC(=O)[C@H](CC(C)C)NC(=O)[C@](C)(Cc1ccccc1)NC(=O)[C@H](CO)NC(=O)[C@](C)(CO)NC(=O)[C@@H](NC(=O)[C@H](CC(=O)O)NC(=O)[C@H](CO)NC(=O)[C@@H](NC(=O)[C@](C)(Cc1ccccc1)NC(=O)[C@H](CO)NC(=O)CNC(=O)[C@H](CCC(=O)O)NC(=O)C(C)(C)NC(=O)[C@@H](N)Cc1c[nH]cn1)[C@@H](C)O)C(C)C)C(=O)N[C@@H](CCC(=O)O)C(=O)N[C@@](C)(Cc1ccccc1)C(=O)N[C@H](C(=O)N[C@@H](C)C(=O)N[C@@](C)(Cc1ccccc1)C(=O)N[C@H](C(=O)N[C@H](C(=O)N[C@@](C)(CCCCN)C(=O)NCC(=O)NCC(N)=O)C(C)C)C(C)C)[C@@H](C)CC [compound 131]	≥ 29	≥ 29	≥ 29	≥ 29	14	9.9	11.7				
CC[C@H](C)[C@H](NC(=O)[C@](C)(Cc1ccccc1)NC(=O)[C@H](CCC(=O)O)NC(=O)[C@H](CCCCNC(=O)CC[C@H](NC(=O)CC[C@H](NC(=O)CCCCCCCCCCCOc1ccc(C(=O)O)cc1)C(=O)O)C(=O)O)NC(=O)[C@H](C)NC(=O)[C@H](C)NC(=O)[C@H](CCC(=O)O)NC(=O)CNC(=O)[C@H](CCC(=O)O)NC(=O)[C@H](CC(C)C)NC(=O)[C@](C)(Cc1ccccc1)NC(=O)[C@H](CO)NC(=O)[C@](C)(CO)NC(=O)[C@@H](NC(=O)[C@H](CC(=O)O)NC(=O)[C@H](CO)NC(=O)[C@@H](NC(=O)[C@](C)(Cc1ccccc1)NC(=O)[C@H](CO)NC(=O)CNC(=O)[C@H](CCC(=O)O)NC(=O)C(C)(C)NC(=O)[C@@H](N)Cc1c[nH]cn1)[C@@H](C)O)C(C)C)C(=O)N[C@@H](C)C(=O)N[C@@](C)(Cc1ccccc1)C(=O)N[C@H](C(=O)N[C@H](C(=O)N[C@@](C)(CCCCN)C(=O)NCC(=O)NCC(N)=O)C(C)C)C(C)C [compound 138]					19	15	17.2	≥ 26	≥ 26	≥ 26	≥ 26
CC[C@H](C)[C@H](NC(=O)[C@](C)(Cc1ccccc1)NC(=O)[C@H](CCC(=O)O)NC(=O)[C@H](CCCCNC(=O)CC[C@H](NC(=O)CC[C@H](NC(=O)CC[C@H](NC(=O)CCCCCCCCCCCOc1ccc(C(=O)O)cc1)C(=O)O)C(=O)O)C(=O)O)NC(=O)[C@H](C)NC(=O)[C@H](C)NC(=O)[C@H](CCC(=O)O)NC(=O)CNC(=O)[C@H](CCC(=O)O)NC(=O)[C@H](CC(C)C)NC(=O)[C@](C)(Cc1ccccc1)NC(=O)[C@H](CO)NC(=O)[C@](C)(CO)NC(=O)[C@@H](NC(=O)[C@H](CC(=O)O)NC(=O)[C@H](CO)NC(=O)[C@@H](NC(=O)[C@](C)(Cc1ccccc1)NC(=O)[C@H](CO)NC(=O)CNC(=O)[C@H](CCC(=O)O)NC(=O)C(C)(C)NC(=O)[C@@H](N)Cc1c[nH]cn1)[C@@H](C)O)C(C)C)C(=O)N[C@@H](C)C(=O)N[C@@](C)(Cc1ccccc1)C(=O)N[C@H](C(=O)N[C@H](C(=O)N[C@@](C)(CCCCN)C(=O)NCC(=O)NCC(N)=O)C(C)C)C(C)C [compound 139]					29	22	25.5	≥ 26	≥ 26	≥ 26	≥ 26

Continued, in another order:

EC50 [1, 4] [nM]	EC50 [1, 5] [nM]	EC50 [2, 6] [nM]	EC50 [2, 7] [nM]	EC50 [3, 8] [pM]	EC50 [3, 9] [pM]	EC50 [3, 10] [pM]	SMILES	EC50 [1, 11] [nM]	EC50 [1, 12] [nM]	EC50 [2, 13] [nM]	EC50 [2, 14] [nM]
≥ 25	≥ 25.1	≥ 25	≥ 25.1	≥ 25000	≥ 25100	≥ 25100	CC[C@H](C)[C@H](NC(=O)[C@](C)(Cc1ccccc1)NC(=O)[C@H](CCC(=O)O)NC(=O)[C@](C)(CCCCN)NC(=O)[C@H](C)NC(=O)[C@H](C)NC(=O)[C@H](CCC(=O)O)NC(=O)CNC(=O)[C@H](CCC(=O)O)NC(=O)[C@H](CC(C)C)NC(=O)[C@](C)(Cc1ccccc1)NC(=O)[C@H](CO)NC(=O)[C@](C)(CO)NC(=O)[C@@H](NC(=O)[C@H](CC(=O)O)NC(=O)[C@H](CO)NC(=O)[C@@H](NC(=O)[C@](C)(Cc1ccccc1)NC(=O)[C@H](CO)NC(=O)CNC(=O)[C@H](CCC(=O)O)NC(=O)[C@H](CCCCNC(=O)COCCOCCNC(=O)COCCOCCNC(=O)CC[C@H](NC(=O)CCCCCCCCCCCCCCCCC(=O)O)C(=O)O)NC(=O)[C@@H](N)Cc1c[nH]cn1)[C@@H](C)O)C(C)C)C(=O)N[C@@H](C)C(=O)N[C@@](C)(Cc1ccccc1)C(=O)N[C@H](C(=O)N[C@H](C(=O)N[C@@](C)(CCCCN)C(=O)NCC(=O)NCC(N)=O)C(C)C)C(C)C [compound 127]				
≥ 28	≥ 28	≥ 28	≥ 28	15	21	18.2	CCCCCCCCCCCC(=O)N[C@@H](CCC(=O)NCCCC[C@H](NC(=O)[C@H](C)NC(=O)[C@H](C)NC(=O)[C@H](CCC(=O)O)NC(=O)CNC(=O)[C@H](CCC(=O)O)NC(=O)[C@H](CC(C)C)NC(=O)[C@](C)(Cc1ccccc1)NC(=O)[C@H](CO)NC(=O)[C@](C)(CO)NC(=O)[C@@H](NC(=O)[C@H](CC(=O)O)NC(=O)[C@H](CO)NC(=O)[C@@H](NC(=O)[C@](C)(Cc1ccccc1)NC(=O)[C@H](CO)NC(=O)CNC(=O)[C@H](CCC(=O)O)NC(=O)C(C)(C)NC(=O)[C@@H](N)Cc1c[nH]cn1)[C@@H](C)O)C(C)C)C(=O)N[C@@H](CCC(=O)O)C(=O)N[C@@](C)(Cc1ccccc1)C(=O)N[C@H](C(=O)N[C@@H](C)C(=O)N[C@@](C)(Cc1ccccc1)C(=O)N[C@H](C(=O)N[C@H](C(=O)N[C@@](C)(CCCCN)C(=O)NCC(=O)NCC(N)=O)C(C)C)C(C)C)[C@@H](C)CC)C(=O)O [compound 128]				
≥ 26	≥ 26	≥ 26	≥ 26	16	13	14.4	CCCCCCCCCCCC(=O)N[C@@H](CCC(=O)N[C@@H](CCC(=O)N[C@@H](CCC(=O)NCCCC[C@H](NC(=O)[C@H](C)NC(=O)[C@H](C)NC(=O)[C@H](CCC(=O)O)NC(=O)CNC(=O)[C@H](CCC(=O)O)NC(=O)[C@H](CC(C)C)NC(=O)[C@](C)(Cc1ccccc1)NC(=O)[C@H](CO)NC(=O)[C@](C)(CO)NC(=O)[C@@H](NC(=O)[C@H](CC(=O)O)NC(=O)[C@H](CO)NC(=O)[C@@H](NC(=O)[C@](C)(Cc1ccccc1)NC(=O)[C@H](CO)NC(=O)CNC(=O)[C@H](CCC(=O)O)NC(=O)C(C)(C)NC(=O)[C@@H](N)Cc1c[nH]cn1)[C@@H](C)O)C(C)C)C(=O)N[C@@H](CCC(=O)O)C(=O)N[C@@](C)(Cc1ccccc1)C(=O)N[C@H](C(=O)N[C@@H](C)C(=O)N[C@@](C)(Cc1ccccc1)C(=O)N[C@H](C(=O)N[C@H](C(=O)N[C@@](C)(CCCCN)C(=O)NCC(=O)NCC(N)=O)C(C)C)C(C)C)[C@@H](C)CC)C(=O)O)C(=O)O)C(=O)O [compound 130]				
≥ 27	≥ 27	≥ 27	≥ 27	34	25	29.4	CCCCCCCCCCCC(=O)NCCCCCC(=O)NCCCCCC(=O)NCCCCCC(=O)NCCCC[C@H](NC(=O)[C@H](C)NC(=O)[C@H](C)NC(=O)[C@H](CCC(=O)O)NC(=O)CNC(=O)[C@H](CCC(=O)O)NC(=O)[C@H](CC(C)C)NC(=O)[C@](C)(Cc1ccccc1)NC(=O)[C@H](CO)NC(=O)[C@](C)(CO)NC(=O)[C@@H](NC(=O)[C@H](CC(=O)O)NC(=O)[C@H](CO)NC(=O)[C@@H](NC(=O)[C@](C)(Cc1ccccc1)NC(=O)[C@H](CO)NC(=O)CNC(=O)[C@H](CCC(=O)O)NC(=O)C(C)(C)NC(=O)[C@@H](N)Cc1c[nH]cn1)[C@@H](C)O)C(C)C)C(=O)N[C@@H](CCC(=O)O)C(=O)N[C@@](C)(Cc1ccccc1)C(=O)N[C@H](C(=O)N[C@@H](C)C(=O)N[C@@](C)(Cc1ccccc1)C(=O)N[C@H](C(=O)N[C@H](C(=O)N[C@@](C)(CCCCN)C(=O)NCC(=O)NCC(N)=O)C(C)C)C(C)C)[C@@H](C)CC [compound 133]				
